Our source for the IC50 values is patent US10865191B2, “Heterocyclic compounds useful as modulators of TNF alpha” (BRISTOL-MYERS SQUIBB COMPANY, priority 2015, dated 2020).

Molecules are shown by their SMILES.

Chain of TNFα (P01375 77-233 limits assumed): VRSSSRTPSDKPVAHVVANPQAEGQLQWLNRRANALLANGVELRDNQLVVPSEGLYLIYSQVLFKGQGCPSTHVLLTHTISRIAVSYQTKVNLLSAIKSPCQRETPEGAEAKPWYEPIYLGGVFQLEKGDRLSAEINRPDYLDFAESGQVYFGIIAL

The first assay has as its target TNFα (Homo sapiens, UniProt P01375). Nature of the assay: TNF induced HEK-Blue assay (NF-kB-driven secreted alkaline phosphatase reporter). It counts as cell-based. The settings on record: TNF induced HEK-Blue assay IC50 value, TNFα 0.5 ng/mL, HEK-Blue-CD40L cells, 18 h. In outline:
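HEK-Blue-CD40L cells (NF-kB-driven SEAP reporter), 20,000/well, added after 30 min pre-incubation of compound (0.004–25 μM final) with TNFα 0.5 ng/mL final at 37 °C; 18 h incubation. SEAP read with QUANTI-Blue at 620 nm; IC50 from 4-parameter logistic fit, normalized to unstimulated and stimulated DMSO controls.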
Regarding `C[C@@H](Nc1c(Cl)cnc2ccc(-c3cnc(C(C)(C)O)nc3)cc12)c1ccccc1F` [Example 217, (R)-2-(5-(3-chloro-4-(1-(2-fluorophenyl)ethylamino)quinolin-6-yl)pyrimidin-2-yl)propan-2-ol], the IC50 is below 1000 nM.

The assay is the same for the next values; noted with them: TNFα 0.5 ng/mL, HEK-Blue-CD40L cells, 18 h; read-out: TNF induced HEK-Blue assay IC50 value.
As to `CCN(Cc1c(Cl)cnc2ccc(-c3cnc(C(C)(C)O)nc3)cc12)c1ccccc1F` [Example 68, 2-(5-(3-chloro-4-((ethyl(2-fluorophenyl)amino)methyl)quinolin-6-yl)pyrimidin-2-yl)propan-2-ol], the IC50 was below 1000 nM. The same measure, in the same setting: with `CC(Nc1c(Cl)cnc2cc(F)c(-c3ccc(C(O)CN4CCOCC4)cc3)cc12)c1ccccc1F` (stereo not shown) [Example 277, 1-(4-(3-chloro-7-fluoro-4-((1-(2-fluorophenyl)ethyl)amino)quinolin-6-yl)phenyl)-2-morpholinoethan-1-ol] the figure was below 1000 nM; with `CC(Nc1ccnc2cc(F)c(-c3cnc(C4(O)CCOCC4)nc3)cc12)c1ccccc1F` (racemic) [Example 287, 4-(5-(7-fluoro-4-((1-(2-fluorophenyl)ethyl)amino)quinolin-6-yl)pyrimidin-2-yl)tetrahydro-2H-pyran-4-ol], 10000 to 25000 nM. On to `C=Cc1ccc(F)c([C@@H](Nc2c(Cl)cnc3cc(F)c(-c4cnc(C(C)(C)O)nc4)nc23)C(F)F)c1` [Example 215, (R)-2-(5-(7-chloro-8-((2,2-difluoro-1-(2-fluoro-5-vinylphenyl)ethyl)amino)-3-fluoro-1,5-naphthyridin-2-yl)pyrimidin-2-yl)propan-2-ol], for which the IC50 is below 1000 nM. Still for that read-out and setting: the figure for `Cc1nc2cc(F)c(-c3cnc(C(C)(C)O)nc3)nc2c(N[C@H](C)c2cccc(C(N)=O)c2)c1Cl` [Example 580, (R)-3-(1-((3-chloro-7-fluoro-6-(2-(2-hydroxypropan-2-yl)pyrimidin-5-yl)-2-methyl-1,5-naphthyridin-4-yl)amino)ethyl)benzamide] is below 1000 nM. On the same count and under the same terms, the figure for `CC(C)(O)c1ncc(-c2nc3c(N[C@@H](c4ccccc4F)C(F)F)c(Cl)cnc3cc2F)cn1` [Example 207, (S)-2-(5-(7-chloro-8-((2,2-difluoro-1-(2-fluorophenyl)ethyl)amino)-3-fluoro-1,5-naphthyridin-2-yl)pyrimidin-2-yl)propan-2-ol] is below 1000 nM. For the compound `C[C@@H](Nc1c(Cl)cnc2ccc(-c3cnc(C(C)(C)O)nc3)cc12)c1cc(Br)ccc1F` [Example 318, (R)-2-(5-(4-((1-(5-bromo-2-fluorophenyl)ethyl)amino)-3-chloroquinolin-6-yl)pyrimidin-2-yl)propan-2-ol], the IC50 is below 1000 nM.

On to `CC(C)(O)c1ncc(-c2ccc3ncc(Cl)c(NCc4ccc(Br)cc4-n4cccn4)c3c2)cn1` [Example 56, 2-(5-(4-((4-bromo-2-(1H-pyrazol-1-yl)benzyl)amino)-3-chloroquinolin-6-yl)pyrimidin-2-yl)propan-2-ol], for which the IC50 was 10000 to 25000 nM. For the compound `CC(C)C(Nc1c(Cl)cnc2ccc(-c3cnc(C(C)(C)O)nc3)cc12)c1ccccn1` (racemic) [Example 51, 2-(5-(3-chloro-4-((2-methyl-1-(pyridin-2-yl)propyl)amino)quinolin-6-yl)pyrimidin-2-yl)propan-2-ol], the IC50 was below 1000 nM.

For `CC(Nc1c(Cl)cnc2ccc(-c3ccc(C(C)(C)O)cc3)cc12)c1ncccn1` (racemic) [Example 177, 2-(4-(3-chloro-4-((1-(pyrimidin-2-yl)ethyl)amino)quinolin-6-yl)phenyl)propan-2-ol], the IC50 is below 1000 nM.

Take `CC(Nc1c(Cl)cnc2ccc(-c3cnc(N4CCNC(=O)C4)nc3)cc12)c1nc(N)ccc1F` (stereo not shown) [Example 562, 4-(5-(4-((1-(6-amino-3-fluoropyridin-2-yl)ethyl)amino)-3-chloroquinolin-6-yl)pyrimidin-2-yl) piperazin-2-one]: the IC50 was below 1000 nM. The same measure, in the same setting: the figure for `C[C@@H](Nc1c(Cl)cnc2ccc(-c3cnc(C(C)(C)O)nc3)cc12)c1cc(-c2cncs2)ccc1F` [Example 347, (R)-2-(5-(3-chloro-4-((1-(2-fluoro-5-(thiazol-5-yl)phenyl)ethyl)amino)quinolin-6-yl)pyrimidin-2-yl)propan-2-ol] is below 1000 nM; for `CC(Nc1c(Cl)cnc2cc(F)c(-c3ccc(C4(CO)CC4)cc3)cc12)c1ccccc1F` (stereo not shown) [Example 265, (1-(4-(3-chloro-7-fluoro-4-((1-(2-fluorophenyl)ethyl)amino)quinolin-6-yl)phenyl)cyclopropyl) methanol] it is below 1000 nM; for `CC(Nc1c(Cl)cnc2cc(F)c(-c3cnc(C(O)CN4CCOCC4)cn3)cc12)c1ccccc1F` (stereo not shown) [Example 275, 1-(5-(3-chloro-7-fluoro-4-((1-(2-fluorophenyl)ethyl)amino)quinolin-6-yl)pyrazin-2-yl)-2-morpholinoethan-1-ol] it is below 1000 nM. Still for that read-out and setting: the figure for `Cc1nc2cc(F)c(-c3cnc(C(C)(C)O)nc3)nc2c(N[C@H](C)c2cccc(CO)c2)c1Cl` [Example 578, (R)-2-(5-(7-chloro-3-fluoro-8-((1-(3-(hydroxymethyl)phenyl)ethyl)amino)-6-methyl-1,5-naphthyridin-2-yl)pyrimidin-2-yl) propan-2-ol] is below 1000 nM; for `Cc1nc2ccc(-c3cnc(C(C)(C)O)nc3)cc2c(N[C@H](C)c2cc(-c3cnc(C(C)(C)O)nc3)ccc2F)c1Cl` [Example 343, (R)-2-(5-(3-chloro-4-((1-(2-fluoro-5-(2-(2-hydroxypropan-2-yl)pyrimidin-5-yl)phenyl)ethyl)amino)-2-methylquinolin-6-yl)pyrimidin-2-yl)propan-2-ol] it is below 1000 nM; for `CC(Nc1c(Cl)cnc2ccc(-c3cnc(C(C)(C)O)nc3)cc12)[C@H]1CCCNC1` (single isomer, unassigned) [Example 97] it is below 1000 nM. For `CCCC(C)C(N)c1c(Cl)c(C)nc2ccc(-c3cnc(C(C)(C)O)nc3)cc12` (single isomer, unassigned) [Example 357, 2-(5-(4-(1-amino-2-methylpentyl)-3-chloro-2-methylquinolin-6-yl)pyrimidin-2-yl)propan-2-ol], the half-maximal inhibitory concentration (IC50) lay within 1000 to 10000 nM. As for `CC(=O)NC[C@@H](C(=O)O)N1CCN(c2ncc(-c3ccc4ncc(Cl)c(N[C@H](C)c5ccccc5F)c4c3)cn2)CC1` [Example 95, (S)-3-acetamido-2-(4-(5-(3-chloro-4-(((R)-1-(2-fluorophenyl)ethyl)amino)quinolin-6-yl)pyrimidin-2-yl)piperazin-1-yl)propanoic acid], the IC50 was in the range of 1000 to 10000 nM. Consider `C[C@H](Nc1c(Cl)cnc2ccc(-c3cnc(C(C)(C)O)nc3)cc12)C1CCCCC1` [Example 59, (S)-2-(5-(3-chloro-4-((1-cyclohexylethyl)amino)quinolin-6-yl)pyrimidin-2-yl)propan-2-ol], for which the IC50 was in the range of 10000 to 25000 nM. On the same count and under the same terms, with `CC(Nc1c(Cl)cnc2cc(F)c(-c3ccc(C(O)CO)cc3)cc12)c1cc(C#N)ccc1F` (mixture of isomers) [Example 599, 3-(1-((3-chloro-6-(4-(1,2-dihydroxyethyl)phenyl)-7-fluoroquinolin-4-yl)amino)ethyl)-4-fluorobenzonitrile] the figure was below 1000 nM. On the same count and under the same terms, the figure for `CC1Cc2ccccc2N1Nc1c(Cl)cnc2ccc(-c3cnc(C(C)(C)O)nc3)cc12` (racemic) [Example 48, 2-(5-(3-chloro-4-((2-methylindolin-1-yl)amino)quinolin-6-yl)pyrimidin-2-yl)propan-2-ol] is below 1000 nM; for `NC1(C(=O)O)CCN(c2ncc(-c3ccc4ncc(Cl)c(N[C@@H](c5ccccc5F)C(F)F)c4c3)cn2)CC1` [Example 75, (S)-4-amino-1-(5-(3-chloro-4-((2,2-difluoro-1-(2-fluorophenyl)ethyl)amino)quinolin-6-yl)pyrimidin-2-yl)piperidine-4-carboxylic acid] it is below 1000 nM; for `C=Cc1cccc([C@@H](C)Nc2c(Cl)cnc3cc(F)c(-c4cnc(C(C)(C)O)nc4)nc23)c1` [Example 574, (R)-2-(5-(7-chloro-3-fluoro-8-((1-(3-vinylphenyl)ethyl)amino)-1,5-naphthyridin-2-yl)pyrimidin-2-yl)propan-2-ol] it is below 1000 nM.

Turning to `COc1ccc(F)c([C@@H](C)Nc2c(Cl)c(C)nc3ccc(Br)cc23)c1` [Example 328, (R)-6-bromo-3-chloro-N-(1-(2-fluoro-5-methoxyphenyl)ethyl)-2-methylquinolin-4-amine], the IC50 lay in the range of 1000 to 10000 nM.

On to `Cc1nc2ccc(-c3cnc(C(C)(C)O)nc3)cc2c(N[C@H](C)c2cc(C(=O)O)ccc2F)c1Cl` [Example 407, (R)-3-(1-((3-chloro-6-(2-(2-hydroxypropan-2-yl)pyrimidin-5-yl)-2-methylquinolin-4-yl)amino)ethyl)-4-fluorobenzoic acid], for which the IC50 was in the range of 10000 to 25000 nM.

Take `Cc1ccc(C)c(Nc2c(Cl)c(C(=O)Nc3ccncc3)nc3ccc(-c4ccc(C#N)nc4)cc23)c1` [Example 36, 3-chloro-6-(6-cyanopyridin-3-yl)-4-((2,5-dimethylphenyl)amino)-N-(pyridin-4-yl)quinoline-2-carboxamide]: the half-maximal inhibitory concentration (IC50) is below 1000 nM. Same read-out and setting: the figure for `CC(Cc1cccc2[nH]ccc12)Nc1c(Cl)cnc2ccc(-c3cnc(C(C)(C)O)nc3)cc12` (racemic) [Example 144, 2-(5-(4-((1-(1H-indol-4-yl)propan-2-yl)amino)-3-chloroquinolin-6-yl)pyrimidin-2-yl)propan-2-ol] is 1000 to 10000 nM; for `CC(Nc1c(Cl)cnc2ccc(-c3ccc(C(C)(C)O)cc3)cc12)c1ccncn1` (racemic) [Example 173, 2-(4-(3-chloro-4-((1-(pyrimidin-4-yl)ethyl)amino)quinolin-6-yl)phenyl)propan-2-ol] it is 1000 to 10000 nM. The same measure, in the same setting: the figure for `C[C@@H](Nc1c(Cl)cnc2cc(F)c(-c3cnc(C(C)(C)O)nc3)nc12)c1cc(CO)ccc1F` [Example 505, (R)-2-(5-(7-chloro-3-fluoro-8-((1-(2-fluoro-5-(hydroxymethyl)phenyl)ethyl)amino)-1,5-naphthyridin-2-yl)pyrimidin-2-yl)propan-2-ol] is below 1000 nM.
